The record followed here is patent US20250120989A1, “BRIDGED TRICYCLIC CARBAMOYLPYRIDONE COMPOUNDS AND USES THEREOF” (priority 2023, published 2025).

SMILES strings stand for the structures. ≈ marks a conversion by molar mass, not a printed value.

Series [1] is described as follows: Dog PO pharmacokinetic studies with P-gp inhibitor encequidar mesylate (Example E). It is filed as in vivo, beagle dog. Particulars: for AUCinf, CMAX and oral bioavailability when administered with encequidar mesylate versus without / AUC(0-inf) / Cmax / bioavailability: dosed compound measured; for AUCinf, CMAX and oral bioavailability when administered with encequidar mesylate versus without: Table 5 versus Table 4, FIG. 1 and 2; for AUC(0-inf) / Cmax / bioavailability: male, beagle, plasma, dog PO 4 mg/kg, encequidar mesylate 5 mg-eq/kg PO about 30 min before. Here is the method: Three male beagle dogs were fasted overnight. […] Individual doses were calculated based on body weights recorded on the day of dose administration. […] This was followed by an additional 20 mL of water administered via oral gavage. The total flush volume was approximately 30 mL. Individual doses were administered on a […]. In all cases, food was returned at approximately 4 hours after dosing. […] Bioanalysis was carried out according to Example C.

A further series is described as follows: physchem. Particulars: FaSSIF, 23 °C, thermodynamic from solid.
Another series in a line: in vitro. Conditions: human, uninfected MT-4 cells.
In a further series the test system is HIV-1 (IIIB). Kind of series: microbe, parasite or virus in culture. Conditions: Human immunodeficiency virus 1, MT4, 120 h; HIV-1 (IIIB) replication in MT-4 cells, 5 days, Cell Titer Glo; read-out: MT4 EC50. In kind it is cell-based.

Take `COC1=NO[C@@]2(CC[C@H](C)N3C[C@H]2n2cc(C(=O)NCc4ccc(F)cc4F)c(=O)c(O)c2C3=O)C1` [Intermediate C, (3′S,5S,7′R)—N-(2,4-difluorobenzyl)-12′-hydroxy-3-methoxy-3′-methyl-1′,11′-dioxo-1′,4′,5′,11′-tetrahydro-3′H,4H,7′H-spiro[isoxazole-5,6′-[2,7]methanopyrido[1,2-a][1,4]diazonine]-10′-carboxamide]: the “AUCinf, CMAX and oral bioavailability when administered with encequidar mesylate versus without” value in series [1] (dog PO) is recorded as “increased”. In series [1], this compound registered an AUC(0-inf) of 2300 ± 171 µM·h, a Cmax of 62 ± 3.5 µM and a bioavailability of 82.3 ± 13.4%.
For `CC1=NO[C@@]2(CC[C@H](C)N3C[C@H]2n2cc(C(=O)NCc4ccc(F)cc4F)c(=O)c(O)c2C3=O)C1` [Intermediate B, (3′S,5S,7′R)—N-(2,4-difluorobenzyl)-12′-hydroxy-3,3′-dimethyl-1′,11′-dioxo-1′,4′,5′,11′-tetrahydro-3′H,4H,7′H-spiro[isoxazole-5,6′-[2,7]methanopyrido[1,2-a][1,4]diazonine]-10′-carboxamide], the “AUCinf, CMAX and oral bioavailability when administered with encequidar mesylate versus without” value in series [1] (dog PO) is “increased”. In series [1], the AUC(0-inf) turned out to be 3980 ± 762 µM·h, the peak level (Cmax) was 80.8 ± 4.9 µM and the bioavailability came out at 70.3 ± 1.8%. In the series “physchem”, this compound had a thermodynamic solubility at 24 h of 2 µg/mL (≈ 0.00411 mM).
With `CC1=NO[C@@]2(CC[C@H](C)N3C[C@H]2n2cc(C(=O)NCc4ccc(F)cc4F)c(=O)c(OCOC(=O)O[C@H](C)[C@@H](C)OP(=O)(O)O)c2C3=O)C1` [Compound 27, (((3′S,5S,7′R)-10′-((2,4-difluorobenzyl)carbamoyl)-3,3′-dimethyl-1′,11′-dioxo-1′,4′,5′,11′-tetrahydro-3′H,4H,7′H-spiro[isoxazole-5,6′-[2,7]methanopyrido[1,2-a][1,4]diazonin]-12′-yl)oxy)methyl ((2R,3R)-3-(phosphonooxy)butan-2-yl) carbonate], the CC50 at 5 days in the series “in vitro” turned out to be 18.7 µM. Also, in the series with HIV-1 (IIIB), the EC50 amounted to 0.00247 µM. The same compound yielded a thermodynamic solubility at 24 h in “physchem” of 4660 µg/mL (≈ 6.55 mM).
The corresponding values for `CC1=NO[C@@]2(CC[C@H](C)N3C[C@H]2n2cc(C(=O)NCc4ccc(F)cc4F)c(=O)c(OCOC(=O)OCC4(COP(=O)(O)O)CC4)c2C3=O)C1` [Compound 33, (((3′S,5S,7′R)-10′-((2,4-difluorobenzyl)carbamoyl)-3,3′-dimethyl-1′,11′-dioxo-1′,4′,5′,11′-tetrahydro-3′H,4H,7′H-spiro[isoxazole-5,6′-[2,7]methanopyrido[1,2-a][1,4]diazonin]-12′-yl)oxy)methyl ((1-((phosphonooxy)methyl)cyclopropyl)methyl) carbonate] are 12.3 µM, 0.00217 µM and 5680 µg/mL (≈ 7.84 mM).
`CC1=NO[C@@]2(CC[C@H](C)N3C[C@H]2n2cc(C(=O)NCc4ccc(F)cc4F)c(=O)c(OCOC(=O)O[C@@H](C)[C@H](C)OP(=O)(O)O)c2C3=O)C1` [Compound 28, (((3′S,5S,7′R)-10′-((2,4-difluorobenzyl)carbamoyl)-3,3′-dimethyl-1′,11′-dioxo-1′,4′,5′,11′-tetrahydro-3′H,4H,7′H-spiro[isoxazole-5,6′-[2,7]methanopyrido[1,2-a][1,4]diazonin]-12′-yl)oxy)methyl ((2S,3S)-3-(phosphonooxy)butan-2-yl) carbonate]: in the series “in vitro”, the CC50 at 5 days stood at 28.9 µM. In addition, the concentration giving a half-maximal response (EC50) in the series with HIV-1 (IIIB) worked out at 0.00485 µM. Moreover, the thermodynamic solubility at 24 h in the series “physchem” stood at 4400 µg/mL (≈ 6.18 mM).
`CC1=NO[C@@]2(CC[C@H](C)N3C[C@H]2n2cc(C(=O)NCc4ccc(F)cc4F)c(=O)c(OCOC(=O)OCC(C)(C)COP(=O)(O)O)c2C3=O)C1` [Compound 12, (((3′S,5S,7′R)-10′-((2,4-difluorobenzyl)carbamoyl)-3,3′-dimethyl-1′,11′-dioxo-1′,4′,5′,11′-tetrahydro-3′H,4H,7′H-spiro[isoxazole-5,6′-[2,7]methanopyrido[1,2-a][1,4]diazonin]-12′-yl)oxy)methyl (2,2-dimethyl-3-(phosphonooxy)propyl) carbonate] came in with a CC50 at 5 days in “in vitro” of 14 µM. In the series with HIV-1 (IIIB), the EC50 was 0.00201 µM. The thermodynamic solubility at 24 h in the series “physchem” came to 5280 µg/mL (≈ 7.27 mM).
Consider `COC1=NO[C@@]2(CC[C@H](C)N3C[C@H]2n2cc(C(=O)NCc4ccc(F)cc4F)c(=O)c(OCOC(=O)OCCOP(=O)(O)O)c2C3=O)C1` [Compound 3, (((3′S,5S,7′R)-10′-((2,4-difluorobenzyl)carbamoyl)-3-methoxy-3′-methyl-1′,11′-dioxo-1′,4′,5′,11′-tetrahydro-3′H,4H,7′H-spiro[isoxazole-5,6′-[2,7]methanopyrido[1,2-a][1,4]diazonin]-12′-yl)oxy)methyl (2-(phosphonooxy)ethyl) carbonate], for which the “AUCinf, CMAX and oral bioavailability of Intermediate C when prodrug is administered with encequidar mesylate versus without” value in series [1] (dog PO, Intermediate C measured, Table 5 Entry 3 versus Table 4 Entry 3, FIG. 3) is “increased”. In “in vitro”, this compound registered a CC50 at 5 days of 13 µM. Besides, the EC50 in the series on HIV-1 (IIIB) was found to be 0.00046 µM. The same compound gave a thermodynamic solubility at 24 h in the series “physchem” of 6650 µg/mL (≈ 9.49 mM).
Turning to `COC1=NO[C@@]2(CC[C@H](C)N3C[C@H]2n2cc(C(=O)NCc4ccc(F)cc4F)c(=O)c(OCOC(=O)O[C@H](C)[C@H](C)OP(=O)(O)O)c2C3=O)C1` [Compound 60, (((3′S,5S,7′R)-10′-((2,4-difluorobenzyl)carbamoyl)-3-methoxy-3′-methyl-1′,11′-dioxo-1′,4′,5′,11′-tetrahydro-3′H,4H,7′H-spiro[isoxazole-5,6′-[2,7]methanopyrido[1,2-a][1,4]diazonin]-12′-yl)oxy)methyl ((2R,3S)-3-(phosphonooxy)butan-2-yl) carbonate], it took 23.8 µM to reach half-maximal cytotoxicity in “in vitro” (CC50 at 5 days). Further, the EC50 with HIV-1 (IIIB) turned out to be 0.0019 µM. Besides, the thermodynamic solubility at 24 h in the series “physchem” was found to be 4520 µg/mL (≈ 6.2 mM).
The corresponding values for `CC1=NO[C@@]2(CC[C@H](C)N3C[C@H]2n2cc(C(=O)NCc4ccc(F)cc4F)c(=O)c(OCOC(=O)O[C@@H](C)COP(=O)(O)O)c2C3=O)C1` [Compound 19, (((3′S,5S,7′R)-10′-((2,4-difluorobenzyl)carbamoyl)-3,3′-dimethyl-1′,11′-dioxo-1′,4′,5′,11′-tetrahydro-3′H,4H,7′H-spiro[isoxazole-5,6′-[2,7]methanopyrido[1,2-a][1,4]diazonin]-12′-yl)oxy)methyl ((S)-1-(phosphonooxy)propan-2-yl) carbonate] are 12.2 µM, 0.00235 µM and 5060 µg/mL (≈ 7.24 mM).
In the same order, the values of `COC1=NO[C@@]2(CC[C@H](C)N3C[C@H]2n2cc(C(=O)NCc4ccc(F)cc4F)c(=O)c(OCOC(=O)O[C@H](C)COP(=O)(O)O)c2C3=O)C1` [Compound 54, (((3′S,5S,7′R)-10′-((2,4-difluorobenzyl)carbamoyl)-3-methoxy-3′-methyl-1′,11′-dioxo-1′,4′,5′,11′-tetrahydro-3′H,4H,7′H-spiro[isoxazole-5,6′-[2,7]methanopyrido[1,2-a][1,4]diazonin]-12′-yl)oxy)methyl ((R)-1-(phosphonooxy)propan-2-yl) carbonate] are 15.5 µM, 0.00432 µM and 4660 µg/mL (≈ 6.51 mM).
